According to patent US7064119B2, “Fused bicyclic pyrimidine derivatives” (Kyorin Pharmaceutical Co., Ltd., priority 2002, dated 2006):

Key:
[1] = biological target: T1, NK1 receptor (Cavia porcellus, UniProt P30547); assay: Test for NK1 receptor antagonist: substance P concentration-response in isolated guinea pig ileum, Schild analysis; conditions: substance P-induced contraction, 10 min pretreatment, method of Schild
T1 construct: from tissue; host or cells: isolated guinea pig ileum
Experimental: (1) Test for NK1 Receptor Antagonist
The method used was according to the method proposed by S. Dion et al.(Dion et al., Life Sciences 41(1987): 2269), to which minor modifications were made.
Guinea pigs were stunned by a blow on the head and were exsanguinated from the carotid artery and ilea were isolated. The ileum was mounted in an organ bath containing Tyrode's solution which was maintained at 32° C. and gased with 95% O2 and 5% CO2. The ileum was subjected to a resting tension of 1-gram and allowed to equilibrate for 20 minutes before the experiment was started. As a control, a concentration-response curve for substance P in the absence of any of test compounds was used. The NK1 receptor antagonist activity of each test compound was determined by a concentration-response curve obtained by pretreating at least three concentrations of the test compound for 10 minutes and subsequently applying substance P in a cumulative manner. The Kb values were determined according to the method of Schild and the results are shown in Table 1 (Schild Brit. J. Pharmacol. 14(1959): 48).
The composition of the Tyrode's solution was as follows: NaCl=136.9, KCl=2.7, CaCl2·2H2O=2.5, MgCl2·6H2O=1.0, NaH2PO4·2H2O=0.4, NaHCO3=11.9, glucose=11.1 (mmol/L)

[2] = system: Guinea pigs; assay: Cystometry test on guinea pigs (spinal cord cut), effective bladder capacity; format: in vivo; conditions: guinea pig
Description: (2) Cystometry Test on Guinea Pigs
The method used was according to the method proposed by J S. Peterson et al. (Peterson J S. et al., J. Pharmacol. Methods 21(1989): 231), to which minor modifications were made.
Guinea pigs were anesthetized with halothane and the tenth thoracic spinal cord was cut in each animal. Subsequently, both ureters were ligated and were cut on the kidney-side. Polyethylene catheters were inserted into the bladder to provide an injection pathway for physiological saline and a pathway for the measurement of intravesical pressure. Each animal was restricted in a Ballman cage and was left for more than 2 hours. Subsequently, room-temperature saline was injected through the bladder catheter into the bladder at a rate of 6 mL/hr to conduct a cystometry test. Once the effective bladder capacity was stabilized, a test compound was intravenously administered into the jugular vein. The effective bladder capacity is defined as the volume of saline injected from one urination to the next. The effect of each test compound was determined as the increase in the average bladder volume, which was determined based on the average bladder volume measured 30 minutes prior to the administration of the test compound and the average bladder volume measured every 30 minutes after the administration of the test compound.

T1 sequence (P30547 whole entry): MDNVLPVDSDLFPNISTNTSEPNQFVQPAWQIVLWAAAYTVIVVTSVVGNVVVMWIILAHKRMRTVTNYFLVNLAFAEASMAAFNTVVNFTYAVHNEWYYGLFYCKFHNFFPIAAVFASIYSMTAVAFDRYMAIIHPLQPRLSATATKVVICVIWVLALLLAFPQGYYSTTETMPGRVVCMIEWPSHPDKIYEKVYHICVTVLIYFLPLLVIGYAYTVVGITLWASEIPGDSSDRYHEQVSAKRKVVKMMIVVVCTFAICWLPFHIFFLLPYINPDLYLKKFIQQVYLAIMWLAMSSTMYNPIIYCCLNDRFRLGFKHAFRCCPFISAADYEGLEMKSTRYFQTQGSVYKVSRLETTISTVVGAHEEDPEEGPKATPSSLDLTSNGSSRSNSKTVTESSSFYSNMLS

CC(=O)N1CCN(c2nc(-c3ccccc3C)c3c(n2)N(C(C)=O)CCCN(Cc2cc(C(F)(F)F)cc(C(F)(F)F)c2)C3=O)CC1 [Compound of Example 22, 10-acetyl-2-(4-acetylpiperazine-1-yl)-6-[3,5-bis(trifluoromethyl)benzyl]-5,6,7,8,9,10-hexahydro-4-(2-methylphenyl)-5-oxopyrimido[4,5-b][1,5]diazocine]
Kb [1]: 0.0794 nM

Cc1ccc(-c2c3n(c(=O)c4ncccc24)CC[C@@H](C)CN(Cc2cc(C(F)(F)F)cc(C(F)(F)F)c2)C3=O)cc1 [TAK-637]
Kb [1]: 0.269 nM | Increase in bladder capacity (%) ([2]; dose 0.3 mg/kg i.v.): 12.0% | Increase in bladder capacity (%) ([2]; dose 1 mg/kg i.v.): 23.8% | Increase in bladder capacity (%) ([2]; dose 3 mg/kg i.v.): 20.5%

Cc1ccccc1-c1nc(N2CCOCC2)nc2c1C(=O)N(Cc1cc(C(F)(F)F)cc(C(F)(F)F)c1)CCCN2C [Compound of Example 21, 6-[3,5-bis(trifluoromethyl)benzyl]-5,6,7,8,9,10-hexahydro-10-methyl-4-(2-methylphenyl)-2-(morpholine-4-yl)-5-oxopyrimido(4,5-b][1,5]diazocine]
Kb [1]: 0.42 nM

CC(=O)N1CCN(c2nc(-c3ccccc3C)c3c(n2)N(C)CCCN(Cc2cc(C(F)(F)F)cc(C(F)(F)F)c2)C3=O)CC1 [Compound of Example 20]
Kb [1]: 0.324 nM

COc1ccccc1-c1nc(N2CCS(=O)(=O)CC2)nc2c1C(=O)N(Cc1cc(C(F)(F)F)cc(C(F)(F)F)c1)CCCN2 [Compound of Example 28, 6-[3,5-bis(trifluoromethyl)benzyl]-2-(1,1-dioxothiomorpholine-4-yl)-5,6,7,8,9,10-hexahydro-4-(2-methoxyphenyl)-5-oxopyrimido[4,5-b][1,5]diazocine]
Kb [1]: 0.169 nM

CC(=O)N1CCN(c2nc3c(c(-c4ccccc4C)n2)C(=O)N(Cc2cc(C(F)(F)F)cc(C(F)(F)F)c2)CCCN3)CC1 [Compound of Example 4, 2-(4-acetylpiperazine-1-yl)-6-[3,5-bis(trifluoromethyl)benzyl]-5,6,7,8,9,10-hexahydro-4-(2-methylphenyl)-5-oxopyrimido[4,5-b][1,5]diazocine]
Kb [1]: 0.148 nM | Increase in bladder capacity (%) ([2]; dose 0.3 mg/kg i.v.): 43.0%
